Experimental findings from PMC12637021, “Talin–tensin3 interactions regulate fibrillar adhesion formation and tensin3 phase separation” (The Journal of Cell Biology, 2025) are described below.

The test system of this assay is tensin3 IDR (mCh-IDR). Put plainly: mitochondrial pulldown, talin constructs with mCh-IDR. The settings on record: TLN1-E1770A-cBAK vs TLN1-WT-cBAK; HEK293T; three replicates. Format: binding, Homo sapiens. As for the experimental part: Mitochondrial isolation from HEK293T cells was performed after 24 h of transient expression using a combined method of Qproteome Mitochondria Isolation Kit (QIAGEN) and MACS Mitochondria Isolation Kit (Miltenyi). Cells were collected in ice-cold PBS and aliquoted for the preparation of the whole-cell lysate (wcl) fraction (30%) and the mitochondrial fraction (70%). Cell lysis and homogenization of the mitochondrial fraction were performed according to the manufacturer’s instructions (QIAGEN). Magnetic anti-TOM22 microbeads (Miltenyi) were used to label mitochondria in the homogenized mitochondrial fraction for 1 h at 4°C. The labeled mitochondria were separated from a magnetic column before elution with ice-cold separation buffer (Miltenyi). The eluted mitochondria were washed and centrifuged according to the Miltenyi’s instructions. RIPA buffer (ChromoTek) was used for protein extraction from the wcl and purified mitochondria. Samples were stored at −80°C prior to western blotting.
Samples were mixed with sample buffer (4X, Invitrogen) supplemented with reducing agent (10X, Invitrogen). […] Signals were detected using goat anti-mouse IgG conjugated to IRDye 680RD (1:15,000, ab216776; Abcam) and goat anti-rabbit IgG conjugated to IRDye 800CW (1:15000, ab216773; Abcam) secondary antibodies. […] Western blot analysis and quantification were performed using ImageJ software.

For “TLN1-E1770A-cBAK: constitutively active talin1 construct”, the “increase in IDR pulldown vs WT talin” value amounted to 50%.
